Measured values as given in patent US20020028938A1, “Prostaglandin endoperoxide H synthase biosynthesis inhibitors” (priority 1997, published 2002).

Tests used:
[1] = biological target: T1, Human Whole Platelet Cyclooxygenase-1 (Homo sapiens, UniProt P23219); test: Human Whole Platelet Cyclooxygenase-1 assay (HWPX); type: cell-based; settings: for IC50: read-out: HWPX IC50 (parenthetical value)
T1 construct: from tissue; host or cells: human blood: isolated platelets (A4) or heparinised whole blood (A9)
T1 sequence (P23219 24-599): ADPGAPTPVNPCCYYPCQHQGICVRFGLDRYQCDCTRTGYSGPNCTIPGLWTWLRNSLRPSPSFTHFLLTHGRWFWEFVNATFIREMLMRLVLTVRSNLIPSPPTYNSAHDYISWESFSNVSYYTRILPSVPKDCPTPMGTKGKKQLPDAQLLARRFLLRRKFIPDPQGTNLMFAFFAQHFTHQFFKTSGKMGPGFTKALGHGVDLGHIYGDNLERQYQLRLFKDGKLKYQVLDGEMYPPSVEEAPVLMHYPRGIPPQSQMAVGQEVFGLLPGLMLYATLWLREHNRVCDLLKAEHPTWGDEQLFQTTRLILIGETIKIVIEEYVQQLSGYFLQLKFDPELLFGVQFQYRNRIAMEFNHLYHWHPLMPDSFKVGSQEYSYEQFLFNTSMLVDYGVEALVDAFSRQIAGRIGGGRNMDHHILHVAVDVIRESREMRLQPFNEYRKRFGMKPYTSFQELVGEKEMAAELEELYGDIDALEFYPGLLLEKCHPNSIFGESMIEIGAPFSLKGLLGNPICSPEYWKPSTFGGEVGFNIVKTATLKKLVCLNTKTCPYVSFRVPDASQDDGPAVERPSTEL
Procedure: Blood from normal healthy volunteers is collected into tubes containing ACD (acid citrate dextrose) as the anticoagulant. This blood is centrifuged at 175×g to prepare platelet rich plasma. The platelet rich plasma is then centrifuged at 100×g to pellet the white blood cells, leaving the platelets in the supernatant. The supernatant is layered on a cushion of 0.7 mL of 10% bovine serum albumin in Tyrodes solution (Gibco; Grand Island, N.Y.) and then centrifuged at 1000×g. The resulting supernatant from this centrifuigation is then removed and 11 mL of Tyrodes solution is added to the remaining pellet of platelets. The platelets are then aliquoted at 120 μl into a 96 well plate. Experimental compounds are added and allowed to pre-incubate for 10 minutes. At the end of this pre-incubation period, the calcium ionophore A23187 is added to a final concentration of 8.8 μM and the incubation is continued for ten minutes. The reaction is stopped by adding cold 6 mM EDTA, the incubation mixture is centrifuged at 220×g, and the supernatants are then analyzed for thromboxane using a commercial kit from Cayman Chemical (Ann Arbor, Mich.

[2] = biological target: T2, human amnionic whole cell cyclooxygenase-2 (WISH cells) (Homo sapiens, UniProt P35354); test: IL-1β induced PGE2 production in WISH cells; type: cell-based; settings: for IC50: read-out: Wish IC50 (parenthetical value)
T2 construct: endogenous in cells; host or cells: human amnionic WISH cells, induced with IL-1beta
T2 sequence (P35354 18-604): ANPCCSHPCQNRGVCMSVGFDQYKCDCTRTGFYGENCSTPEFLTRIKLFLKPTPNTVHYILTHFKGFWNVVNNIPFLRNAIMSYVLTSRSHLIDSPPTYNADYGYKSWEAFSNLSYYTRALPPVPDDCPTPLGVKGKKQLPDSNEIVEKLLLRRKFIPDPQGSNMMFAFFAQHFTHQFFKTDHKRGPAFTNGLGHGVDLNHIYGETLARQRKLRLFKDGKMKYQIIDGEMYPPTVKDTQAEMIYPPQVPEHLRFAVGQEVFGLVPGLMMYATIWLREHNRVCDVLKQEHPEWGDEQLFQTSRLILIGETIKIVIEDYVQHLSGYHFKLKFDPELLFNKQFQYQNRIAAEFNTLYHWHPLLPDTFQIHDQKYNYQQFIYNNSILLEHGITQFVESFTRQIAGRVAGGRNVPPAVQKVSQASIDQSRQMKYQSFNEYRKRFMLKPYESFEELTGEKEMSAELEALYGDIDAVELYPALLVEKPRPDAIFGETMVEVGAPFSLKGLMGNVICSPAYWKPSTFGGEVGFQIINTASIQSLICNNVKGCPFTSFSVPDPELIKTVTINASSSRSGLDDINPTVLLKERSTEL
Procedure: EIA reagents for prostaglandin determination were purchased from Perseptive Diagnostics, (Cambridge, Mass.). Prostaglandin E2 (PGE2) levels in lavage fluids were determined after the samples were dried under nitrogen and reconstituted with assay buffer. PGE2 levels in enzyme assays or cell culture media were measured against standards prepared in the same milieu. The immunoassays were conducted as recommended by the manufacturer. The EIA was conducted in 96 well microtiter plates (Nunc Roskilde, Denmark) and optical density was measured using a microplate reader (Vmax, Molecular Devices Corp., Menlo Park, Calif.).
Human amnionic WISH cells were grown to 80% confluence in 48 well plates. Following removal of the growth medium and two washings with Geys Balanced Salt Solutn, 5 ng IL-1β /ml (UBI, Lake Placid, N.Y.) was added to the cells with or without test compound in DMSO (0.01% v/v) in Neuman-Tytell Serumless Medium (GIBCO, Grand Island, N.Y.).

[3] = biological target: T3, recombinant human Cox-1 (r-hu Cox1) (Homo sapiens, UniProt P23219); test: Recombinant human PGHS-1 enzyme assay (RHUCX1); type: biochemical; settings: for inhibition at 100 µM: read-out: RHUCX1 % Inh. at Dose; for IC50: read-out: RHUCX1 IC50 (parenthetical value)
T3 construct: made in house; host or cells: baculovirus/Sf9 insect cells (microsomes)
T3 sequence (P23219 24-599): as the sequence (P23219 24-599) above
Method in brief: (§1)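 IC50 values come from linear regression of percent inhibition, itself calculated against the mean of untreated controls. The underlying signal is PGE2, determined by EIA after a brief room-temperature reaction (2.5 minutes) terminated with acid and then base-neutralized.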

[4] = biological target: T4, recombinant human Cox-2 (r-hu Cox-2) (Homo sapiens, UniProt P35354); test: Recombinant human PGHS-2 enzyme assay (RHUCX2); type: biochemical; settings: for inhibition at 0.1 µM / inhibition at 1 µM: read-out: RHUCX2 % Inh. at Dose; for IC50: read-out: RHUCX2 IC50 (parenthetical value)
T4 construct: made in house; host or cells: baculovirus/Sf9 insect cells (microsomes)
T4 sequence (P35354 18-604): T2 sequence (P35354 18-604)
Method in brief: as §1

[5] = 10 μM, read-out: HWPX % Inhib. at Dose
[6] = read-out: HWPX % Inhib. at Dose

## 2-(5-Methylthien-2-ylmethyl)-4-(4-fluorophenyl)-5-[4-(methylsulfonyl)phenyl]-3(2H)-pyridazinone [Example 43]
[1]; 1 μM
  HWPX % Inhib. at Dose (μM): 9 @ 1%
[1]; 10 μM
  HWPX % Inhib. at Dose (μM): 86 @ 10%
[2]
  IC50: 8 nM
[3]; 100 μM
  RHUCX1 % Inh. at Dose (μM): 8 @ 100%
[4]; 0.1 μM
  RHUCX2 % Inh. at Dose (μM): 96 @ 0.1%
[4]; 1 μM
  RHUCX2 % Inh. at Dose (μM): 100 @ 1%

## CS(=O)(=O)c1ccc(-c2cnn(Cc3ccccc3)c(=O)c2-c2ccc(Cl)cc2)cc1 [Example 53, 2-Benzyl-4-(4-chlorophenyl)-5-[4-(methylsulfonyl)phenyl]-3(2H)-pyridazinone]
[1]; 1 μM, read-out: HWPX % Inhib. at Dose
  inhibition at 1 µM: 8%
[1]; [5]
  inhibition at 10 µM: 78%
[2]; 0.01 μM, read-out: Wish % Inhib. at Dose
  inhibition at 0.01 µM: 44%
[2]; 0.1 μM, read-out: Wish % Inhib. at Dose
  inhibition at 0.1 µM: 90%
[3]; 100 μM
  inhibition at 100 µM: 10%
[4]; 0.1 μM
  inhibition at 0.1 µM: 77%
[4]; 1 μM
  inhibition at 1 µM: 99%
other
  melting point: 157 to 159 °C

## NS(=O)(=O)c1ccc(-c2cnn(-c3ccc(F)cc3)c(=O)c2-c2ccc(F)cc2)cc1F [Example 72, 2,4-Bis-(4-fluorophenyl)-5-[3-fluoro-4-(aminosulfonyl)phenyl]-3(2H)-pyridazinone]
[1]
  IC50: 25000 nM
[2]
  IC50: 72 nM
[3]; 100 μM
  inhibition at 100 µM: 0%
[4]; 0.1 μM
  inhibition at 0.1 µM: 18%
[4]; 1 μM
  inhibition at 1 µM: 65%
other
  melting point: 222 to 224 °C

## CS(=O)(=O)c1ccc(-c2cnn(Cc3ccccc3)c(=O)c2Oc2ccc(F)cc2)cc1 [Example 75]
[1]; 3 μM, read-out: HWPX % Inhib. at Dose
  inhibition at 3 µM: 0%
[1]; [5]
  inhibition at 10 µM: 84%
other
  melting point: 188 to 190 °C

## CS(=O)(=O)c1ccc(-c2cnn(-c3ccc([N+](=O)[O-])s3)c(=O)c2-c2ccc(F)cc2)cc1 [Example 105, 2-(5-Nitro-2-thienyl)-4-(4-fluorophenyl)-5-[4-(methylsulfonl)phenyl]-3(2H)-pyridazinone]
[1]; 1 μM
  HWPX % Inhib. at Dose (μM): 62 @ 1%
[2]
  IC50: 18 nM
[3]; 1 μM
  RHUCX1 % Inh. at Dose (μM): 85 @ 1%
[4]; 0.1 μM
  RHUCX2 % Inh. at Dose (μM): 52 @ 0.1%
[4]; 1 μM
  RHUCX2 % Inh. at Dose (μM): 98 @ 1%

## CS(=O)(=O)c1ccc(-c2cnn(-c3ccc(F)cc3)c(=O)c2Oc2ccc(F)cc2)cc1 [Example 108, 2-(4-Fluorophenyl)-4-(4-fluorophenoxy)-5-[4-(methylsulfonyl)phenyl]-3(2H)-pyridazinone]
[1]
  IC50: 8000 nM
[2]
  IC50: 97 nM
[3]; 100 μM
  inhibition at 100 µM: 0%
[4]
  IC50: 279 nM

## CC(/C=C/Cl)n1ncc(-c2ccc(S(N)(=O)=O)cc2)c(-c2ccc(F)cc2)c1=O (stereo not shown) [Example 140, 2-(3-Chloro-1-methyl-2E-propenyl)-4-(4-fluorophenyl)-5-[4-(aminosulfonyl)phenyl]-3(2H)-pyridazinone]
[1]
  IC50: 773 nM
[2]
  IC50: 10 nM
[3]
  IC50: 3060 nM
[4]
  IC50: 22 nM

## NS(=O)(=O)c1ccc(-c2cnn(CC3=CCCCC3)c(=O)c2-c2ccc(F)cc2)cc1 [Example 145, 2-(1-Cyclohexenylmethyl)-4-(4-fluorphenyl)-5-[4-(aminosulfonyl)phenyl]-3(2H)-pyridazinone]
[1]; 0.3 μM
  HWPX % Inhib. at Dose (μM): 30 @ .3%
[1]; 1 μM
  HWPX % Inhib. at Dose (μM): 72 @ 1%
[2]
  IC50: 9 nM
[3]
  IC50: 238 nM
[4]; 0.01 μM
  RHUCX2 % Inh. at Dose (μM): 56 @ 0.01%
[4]; 0.1 μM
  RHUCX2 % Inh. at Dose (μM): 86 @ 0.1%

## CC(c1ccc(F)c(F)c1)n1ncc(-c2ccc(S(N)(=O)=O)cc2)c(-c2ccc(F)cc2)c1=O (stereo not drawn) [Example 148, 2-(α-Methyl-3,4-difluorobenzyl)-4-(4-fluorophenyl)-5-[4-(aminosulfonlI)phenyl]-3(2H)-pyridazinone]
[1]; 0.3 μM, read-out: HWPX % Inhib. at Dose
  inhibition at 0.3 µM: 51%
[2]
  IC50: 42 nM
other
  melting point: 214 to 215 °C

## NS(=O)(=O)c1ccc(-c2cnn(Cc3cccc(F)c3)c(=O)c2-c2ccc(F)cc2)cc1 [Example 149, 2-(3-Fluorobenzyl)-4-(4-fluorophenyl)-5-[4-(aminosulfonyl)phenyl]-3(2H)-pyrdazinone]
[1]; 3 μM
  HWPX % Inhib. at Dose (μM): 34 @ 3%
[1]; 10 μM
  HWPX % Inhib. at Dose (μM): 89 @ 10%
[2]
  IC50: 30 nM
[3]; 1 μM
  RHUCX1 % Inh. at Dose (μM): 40 @ 1%
[3]; 10 μM
  RHUCX1 % Inh. at Dose (μM): 45 @ 10%
[4]
  IC50: 3 nM

## Cc1cc(-n2ncc(-c3ccc(S(C)(=O)=O)cc3)c(-c3ccc(F)cc3)c2=O)ccc1F [Example 189, 2-(4-Fluoro-3-methylphenyl)-4-(4-fluorophenyl)-5-[4-(methylsulfonyl)phenyl]-3(2H)-pyridazinone]
[1]; [6]
  inhibition at 100 µM: 31%
[2]
  IC50: 41 nM
other
  melting point: 168 to 170 °C

## CS(=O)(=O)c1ccc(-c2cnn(-c3ccc(F)cc3)c(=O)c2COc2ccc(F)cc2)cc1 [Example 194, 2-(4-Fluorophenyl)-4-(4-fluolophenoxymethyl)-5-[4-(methylsulfonyl)phenyl]-3(2H)-pyridazinone]
[1]
  IC50: 28100 nM
[2]
  IC50: 69 nM
[3]; 100 μM
  RHUCX1 % Inh. at Dose (μM): 35 @ 100%
[4]; 0.1 μM
  RHUCX2 % Inh. at Dose (μM): 72 @ 0.1%
[4]; 1 μM
  RHUCX2 % Inh. at Dose (μM): 73 @ 1%
[4]; 10 μM
  RHUCX2 % Inh. at Dose (μM): 90 @ 10%

## Cc1cc(-c2c(-c3ccc(S(C)(=O)=O)cc3)cnn(-c3cccc(Cl)c3)c2=O)ccc1F [Example 244, 2-(3-Chlorophenyl)-4-(4-fluoro-3-methylphenyl)-5-[4-(methylsulfonyl)phenyl]-3(2H)-pyridazinone]
[1]
  IC50: 3670 nM
[2]
  IC50: 19 nM
other
  melting point: 228 to 230 °C

## CS(=O)(=O)c1ccc(-c2cnn(Cc3ccccc3)c(=O)c2-c2ccc(Cl)s2)cc1 [Example 320, 2-Benzyl-4-(5-chloro-2-thienyl)-5-[4-(methylsulfonyl)phenyl]-3(2H)-pyrdazinone]
[1]; 3 μM
  HWPX % Inhib. at Dose (μM): 29 @ 3%
[2]; 0.01 μM
  Wish % Inhib. at Dose (μM): 15 @ .01%
[2]; 0.1 μM
  Wish % Inhib. at Dose (μM): 78 @ .1%

## Cc1ccc(-c2c(-c3ccc(S(C)(=O)=O)cc3)cnn(Cc3ccccc3)c2=O)cc1C [Example 325, 2-Benzyl-4-(3,4-dimethylphenl)-5-[4-(methylsulfonyl)phenyl]-3(2H)-pyridazinone]
[1]
  IC50: 2300 nM
[2]
  IC50: 40 nM
[4]
  IC50: 199 nM

## CS(=O)(=O)c1ccc(-c2cnn(-c3cccc(Cl)c3)c(=O)c2Oc2ccccc2)cc1 [Example 343, 2-(3-Chlorophenyl)-4-(phenoxy)-5-[4-(methylsulfonyl)phenyl]-3(2H)-pyridazinone]
[1]
  IC50: 191 nM
[2]
  IC50: 16 nM
other
  melting point: 205 to 207 °C

## CCC(CC)COc1c(-c2ccc(S(C)(=O)=O)cc2)cnn(-c2ccc(F)cc2)c1=O [Example 430, 2-(4-Fluorophenyl)-4-(2-ethyl-1-butoxy)-5-[4-(methylsulfonyl)phenyl]-3(2H)-pyridazinone]
[1]; [5]
  inhibition at 10 µM: 34%
[1]; [6]
  inhibition at 100 µM: 89%
[2]
  IC50: 54 nM
other
  melting point: 107 to 108 °C
